Test results reported in US20230044787A1, “TRICYCLE DIHYDROIMIDAZOPYRIMIDONE DERIVATIVE, PREPARATION METHOD THEREOF, PHARMACEUTICAL COMPOSITION AND USE THEREOF” (priority 2019, published 2023).

What follows are compounds tested against T1, Lp-PLA2 (Homo sapiens, UniProt Q13093) (assay: Lipoprotein-associated phospholipase A2 (Lp-PLA2) human plasma assay (Thio-PAF assay)). Conditions: Lp-PLA2 human plasma assay (Thio-PAF), pooled human plasma, 30-min pre-incubation at room temperature.
T1 construct: aliquoted and thawed 40 μL of pooled human plasma was previously added; from tissue; host or cells: pooled human plasma
T1 sequence (Q13093 22-441): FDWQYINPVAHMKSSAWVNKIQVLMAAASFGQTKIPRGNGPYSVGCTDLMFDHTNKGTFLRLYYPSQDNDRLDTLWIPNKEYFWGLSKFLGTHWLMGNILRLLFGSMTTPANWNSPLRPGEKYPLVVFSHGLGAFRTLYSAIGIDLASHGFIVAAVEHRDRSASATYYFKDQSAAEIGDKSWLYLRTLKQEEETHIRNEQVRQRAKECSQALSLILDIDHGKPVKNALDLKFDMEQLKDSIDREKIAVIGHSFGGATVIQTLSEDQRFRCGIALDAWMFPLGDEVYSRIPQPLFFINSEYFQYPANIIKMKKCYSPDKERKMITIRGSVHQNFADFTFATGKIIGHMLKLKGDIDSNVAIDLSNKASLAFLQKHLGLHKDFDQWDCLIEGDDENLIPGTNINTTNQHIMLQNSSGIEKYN
Type: biochemical

Question: O=c1nc(OCc2ccc(Oc3ccc(F)c(C(F)(F)F)c3)nc2)cc2n1C[C@]13CO[C@H](CN21)C3 [Example 17, (3S,11aR)-7-((6-(4-fluoro-3-(trifluoromethyl)phenoxy)pyridin-3-yl)methoxy)-3,4-dihydro-1H,9H,11H-3,11a-methanopyrimido[6′,1′:2,3] imidazo[5,1-c][1,4]oxazin-9-one] was tested. Which IC50 did it give?
Answer: Its IC50 is 32.4 nM.

Question: For N#Cc1cc(CCOc2cc3n(c(=O)n2)C[C@]24CO[C@H](CN32)C4)ccc1Oc1ccnc(C(F)(F)F)c1 [Example 101, 5-(2-(((3S,11aR)-9-oxo-3,4-dihydro-1H,9H,11H-3,11a-methanopyrimido[6′-,1′:2,3]imidazo[5,1-c][1,4]oxazin-7-yl)oxy)ethyl)-2-((2-(trifluoromethyl)pyridin-4-yl)oxy)benzonitrile], which IC50 is on record?
Answer: The IC50 was 15.1 nM.

Question: For O=c1nc(OCc2cc(F)c(Oc3cncc(C(F)(F)F)c3)c(F)c2)cc2n1C[C@]13CO[C@H](CN21)C3 [Example 8], which IC50 is on record?
Answer: The IC50 was 4.9 nM.

Question: Which IC50 does the source give for COc1c(OCCc2ccc(Oc3ccnc(C(F)(F)F)c3)cc2)nc(=O)n2c1N1CC3CC1(C3)C2 [Example 188] here?
Answer: Its IC50 is 9.2 nM.

Question: Which IC50 does the source give for COCC12CN3c4cc(OCc5ccc(Oc6ccnc(C(F)(F)F)c6)c(F)c5)nc(=O)n4CC3(C1)C2 [Example 138, 3-((3-fluoro-4-((2-(trifluoromethyl)pyridin-4-yl)oxy)benzyl)oxy)-7-(methoxymethyl)-7,8-dihydro-1H,6H,9H-7,8a-methanopyrrolo[1′,2′:3,4] imidazo[1,2-c]pyrimidin-1-one] here?
Answer: The IC50 was 2.4 nM.

Question: How did the IC50 turn out when O=c1nc(OCCc2ccc(Oc3ccnc(C(F)(F)F)c3)cc2)cc2n1C[C@]13CO[C@H](CN21)C3 [Example 100, (3S,11aR)-7-(4-(2-(trifluoromethyl)pyridin-4-yloxy)phenethoxy)-3,4-dihydro-1H,9H,11H-3,11a-methanopyrimido[6′-,1′:2,3] imidazo[5,1-c][1,4]oxazin-9-one] was run?
Answer: The IC50 was 5.9 nM.

Question: How did the IC50 turn out when N#Cc1cc(COc2cc3n(c(=O)n2)C[C@]24CO[C@H](CN32)C4)ccc1F [Example 193] was run?
Answer: The IC50 was 5.2 nM.

Question: With CC12CCCN1c1cc(OCc3ccc(F)c(F)c3)nc(=O)n1C2 (stereo not shown) [Example 62, 3-((3,4-difluorobenzyl)oxy)-8a-methyl-7,8,8a,9-tetrahydro-1H,6H-pyrrolo[1′,2′:3,4]imidazo [1,2-c]pyrimidin-1-one] as the compound, how does the IC50 read?
Answer: The IC50 was 13 nM.

Question: With CC12CCCN1c1cc(OCc3cc(F)c(Oc4ccnc(C(F)(F)F)c4)c(F)c3)nc(=O)n1C2 (stereo not shown) [Example 54, 3-((3,5-difluoro-4-((2-(trifluoromethyl)pyridin-4-yl)oxy)benzyl)oxy)-8a-methyl-7,8,8a,9-tetrahydro-1H,6H-pyrrolo[1′,2′:3,4]imidazo [1,2-c]pyrimidin-1-one] as the compound, how does the IC50 read?
Answer: Its IC50 is 7.6 nM.

Question: Which IC50 does the source give for O=c1nc(OCCc2ccc(Oc3ccnc(C(F)(F)F)c3)cc2)cc2n1CC13CC(CN21)C3 [Example 111, 3-(4-((2-(trifluoromethyl)pyridin-4-yl)oxy)phenethoxy)-7,8-dihydro-1H,6H,9H-7,8a-methanopyrrolo[1′,2′:3,4] imidazo[1,2-c]pyrimidin-1-one] here?
Answer: Its IC50 is 11.4 nM.

Question: O=c1nc(OCc2ccc(Oc3ccc(C(F)(F)F)cc3)c(F)c2)cc2n1CC13CC(CN21)C3 [Example 129, 3-((3-fluoro-4-(4-(trifluoromethyl)phenoxy)benzyl)oxy)-7,8-dihydro-1H,6H,9H-7,8a-methanopyrrolo[1′,2′:3,4] imidazo[1,2-c]pyrimidin-1-one] was tested. Which IC50 did it give?
Answer: The IC50 was 6.5 nM.

Question: How did the IC50 turn out when O=c1nc(OCc2cc(F)c(Oc3ccc(C(F)(F)F)cc3)c(F)c2)cc2n1C[C@]13CO[C@H](CN21)C3 [Example 144, (3S,11aR)-7-((3,5-difluoro-4-(4-(trifluoromethyl)phenoxy)benzyl)oxy)-3,4-dihydro-1H,9H,11H-3,11a-methanopyrimido[6′1′:2,3] imidazo[5,1-c][1,4]oxazin-9-one] was run?
Answer: The IC50 was 2.4 nM.

Question: How did the IC50 turn out when O=c1nc(OCc2cc(F)c(Oc3ccc(F)cc3)c(F)c2)cc2n1C[C@]13CO[C@H](CN21)C3 [Example 147] was run?
Answer: The IC50 was 6.5 nM.
